In PubChem BioAssay AID1963973 (Molecular Pharmacology Branch, DTP, NCI, 2024):

System: 883617-216-R-J1-PDC tumor spheroids, viability
Assay: Anticancer human tumor 883617-216-R-J1-PDC patient-derived bladder carcinoma cell line growth inhibition [PI3K]
Conditions: spheroids with HUVEC and MSC; for viability, T/C: stronger effect = lower value; active means viability on the fitted dose curve at most 10% of control; inactive means the rest
Method in brief: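 Complex 3D spheroids (cancer cells + endothelial HUVEC + mesenchymal stem cells); drug pairs of targeted agent x inavolisib/alpelisib/duvelisib/copanlisib; half-log series from ~Cmax, max 10 microM if Cmax unknown; endpoint viability.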

[1] = curve of first compound, second compound 0.0316 µM
[2] = curve of first compound, second compound 0.1 µM
[3] = curve of first compound, second compound 0.316 µM
[4] = curve of first compound, second compound 1 µM
[5] = second compound 0.0316 µM, first compound 0.0316 µM
[6] = second compound 0.0316 µM, first compound 0.1 µM
[7] = second compound 0.1 µM, first compound 0.0316 µM
[8] = second compound 0.1 µM, first compound 0.1 µM
[9] = second compound 0.316 µM, first compound 0.0316 µM
[10] = second compound 0.316 µM, first compound 0.1 µM
[11] = second compound 1 µM, first compound 0.0316 µM
[12] = second compound 1 µM, first compound 0.1 µM
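Further: spheroids exposed to agents for 7 days before the viability read.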

Cn1ncnc1[C@H]1c2n[nH]c(=O)c3cc(F)cc(c23)N[C@@H]1c1ccc(F)cc1 + COc1c(OCCCN2CCOCC2)ccc2c3n(c(=NC(=O)c4cnc(N)nc4)nc12)CCN3
active: viability, T/C (second compound 0.316 µM, first compound 0.000316 µM) 5.21% | viability, T/C (second compound 0.316 µM, first compound 0.001 µM) 5.06% | viability, T/C (second compound 0.316 µM, first compound 0.00316 µM) 5.56% | viability, T/C (second compound 0.316 µM, first compound 0.01 µM) 5.19% | viability, T/C [9] 5.74% | viability, T/C [10] 3.68% | viability, T/C (second compound 1 µM, first compound 0.000316 µM) 4.93% | viability, T/C (second compound 1 µM, first compound 0.001 µM) 4.65% | viability, T/C (second compound 1 µM, first compound 0.00316 µM) 3.52% | viability, T/C (second compound 1 µM, first compound 0.01 µM) 2.9% | viability, T/C [11] 3.13% | viability, T/C [12] 2.73%
> 100 nM: IC50 (curve of first compound, second compound 0.00316 µM) | IC50 (curve of first compound, second compound 0.01 µM)
< 0.316 nM: IC50 [1] | IC50 [2] | IC50 [3] | IC50 [4]
inactive: viability, T/C (second compound 0.00316 µM, first compound 0.000316 µM) 88.1% | viability, T/C (second compound 0.00316 µM, first compound 0.001 µM) 79.5% | viability, T/C (second compound 0.00316 µM, first compound 0.00316 µM) 87.2% | viability, T/C (second compound 0.00316 µM, first compound 0.01 µM) 75.3% | viability, T/C (second compound 0.00316 µM, first compound 0.0316 µM) 67.2% | viability, T/C (second compound 0.00316 µM, first compound 0.1 µM) 54.6% | viability, T/C (second compound 0.01 µM, first compound 0.000316 µM) 63.2% | viability, T/C (second compound 0.01 µM, first compound 0.001 µM) 64.7% | viability, T/C (second compound 0.01 µM, first compound 0.00316 µM) 64.9% | viability, T/C (second compound 0.01 µM, first compound 0.01 µM) 86.1% | viability, T/C (second compound 0.01 µM, first compound 0.0316 µM) 54.8% | viability, T/C (second compound 0.01 µM, first compound 0.1 µM) 45% | viability, T/C (second compound 0.0316 µM, first compound 0.000316 µM) 31.3% | viability, T/C (second compound 0.0316 µM, first compound 0.001 µM) 36.6% | viability, T/C (second compound 0.0316 µM, first compound 0.00316 µM) 35.3% | viability, T/C (second compound 0.0316 µM, first compound 0.01 µM) 33.9% | viability, T/C [5] 39.3% | viability, T/C [6] 29% | viability, T/C (second compound 0.1 µM, first compound 0.000316 µM) 16% | viability, T/C (second compound 0.1 µM, first compound 0.001 µM) 17.7% | viability, T/C (second compound 0.1 µM, first compound 0.00316 µM) 16.2% | viability, T/C (second compound 0.1 µM, first compound 0.01 µM) 15.3% | viability, T/C [7] 15.6% | viability, T/C [8] 14.1%

CC1(C)CCC(Nc2ncc(C(F)(F)F)c(-c3c[nH]c4c(P(C)(C)=O)c(C#N)ccc34)n2)CN1 (stereo unspecified) + CC(Nc1ncnc2nc[nH]c12)c1cc2cccc(Cl)c2c(=O)n1-c1ccccc1
active: viability, T/C (second compound 0.0316 µM, first compound 10 µM) 0.45% | viability, T/C (second compound 0.1 µM, first compound 10 µM) 1.12% | viability, T/C (second compound 0.316 µM, first compound 10 µM) 1.62% | viability, T/C (second compound 1 µM, first compound 10 µM) 0.54% | viability, T/C (second compound 3.16 µM, first compound 10 µM) 1.34% | viability, T/C (second compound 10 µM, first compound 10 µM) 0.84%
< 31.6 nM: IC50 [1] | IC50 [2] | IC50 [3] | IC50 [4] | IC50 (curve of first compound, second compound 3.16 µM) | IC50 (curve of first compound, second compound 10 µM)
inactive: viability, T/C [5] 37.5% | viability, T/C [6] 37.6% | viability, T/C (second compound 0.0316 µM, first compound 0.316 µM) 36.1% | viability, T/C (second compound 0.0316 µM, first compound 1 µM) 31.7% | viability, T/C (second compound 0.0316 µM, first compound 3.16 µM) 14.5% | viability, T/C [7] 36.2% | viability, T/C [8] 30.1% | viability, T/C (second compound 0.1 µM, first compound 0.316 µM) 32.6% | viability, T/C (second compound 0.1 µM, first compound 1 µM) 30.9% | viability, T/C (second compound 0.1 µM, first compound 3.16 µM) 13.9% | viability, T/C [9] 33.4% | viability, T/C [10] 35.1% | viability, T/C (second compound 0.316 µM, first compound 0.316 µM) 31.1% | viability, T/C (second compound 0.316 µM, first compound 1 µM) 26.5% | viability, T/C (second compound 0.316 µM, first compound 3.16 µM) 13.9% | viability, T/C [11] 33.6% | viability, T/C [12] 33.7% | viability, T/C (second compound 1 µM, first compound 0.316 µM) 28.8% | viability, T/C (second compound 1 µM, first compound 1 µM) 28.1% | viability, T/C (second compound 1 µM, first compound 3.16 µM) 11.7% | viability, T/C (second compound 3.16 µM, first compound 0.0316 µM) 29.7% | viability, T/C (second compound 3.16 µM, first compound 0.1 µM) 27.3% | viability, T/C (second compound 3.16 µM, first compound 0.316 µM) 28.8% | viability, T/C (second compound 3.16 µM, first compound 1 µM) 24.7% | viability, T/C (second compound 3.16 µM, first compound 3.16 µM) 15% | viability, T/C (second compound 10 µM, first compound 0.0316 µM) 25.7% | viability, T/C (second compound 10 µM, first compound 0.1 µM) 20.8% | viability, T/C (second compound 10 µM, first compound 0.316 µM) 21.8% | viability, T/C (second compound 10 µM, first compound 1 µM) 20.9% | viability, T/C (second compound 10 µM, first compound 3.16 µM) 19.2%

CC(C)NCC(C(=O)N1CCN(c2ncnc3c2C(C)CC3O)CC1)c1ccc(Cl)cc1 (stereo unspecified)
active: viability, T/C (compound 10 µM) 7.67% [middle of 4 runs]
inactive: viability, T/C (compound 0.0316 µM) 93.7% [middle of 4 runs] | viability, T/C (compound 0.1 µM) 77.3% [middle of 4 runs] | viability, T/C (compound 0.316 µM) 68.3% [middle of 4 runs] | viability, T/C (compound 1 µM) 40.5% [middle of 4 runs] | viability, T/C (compound 3.16 µM) 17.1% [middle of 4 runs]
591 nM [middle of 4 runs]: IC50 (curve of compound)
